Source: paper PMC9916356, “Design, Synthesis and Pharmacological Evaluation of New Quinoline-Based Panx-1 Channel Blockers” (International Journal of Molecular Sciences, 2023)
Where two headings read alike, the source gives them in different places.

What was measured:
in vitro = assay: in vitro; set-up: stability in human plasma at 37 °C, HPLC-MS/MS, half-life from first-order degradation plot; details: plasma; human plasma; read-out: H-pl
Description: (§1) In these assays, the variation of analytes concentration at four different incubation times both in PBS and in human plasma samples was monitored to evaluate their susceptibility toward spontaneous or enzymatic hydrolysis, respectively. By plotting any variation of analyte concentration vs. the incubation time, the corresponding degradation profiles in tested matrices were obtained. The analyte concentration (1 µM) used during the stability tests is generally smaller than its Michaelis–Menten constant (KM), and the enzymatic degradation rate is described by a first-order kinetic. Therefore, by plotting the natural logarithm of the quantitative data versus the incubation time, a linear function can be used, and its slope represents the degradation rate (k). Accordingly, with the linear function, the half-life (t1/2) of each tested compound can be calculated as follows: t1/2=[…] The plots of the natural logarithm of the quantitative data versus the incubation time of all the studied compounds were analyzed. […] Parameters beyond this value will be indicated as >120 min. […] The degradation plots in PBS and human plasma of our ester compounds are reported in Supporting Information (Figures S1–S6 and Table S1).

physchem = assay: physchem; set-up: chemical stability in PBS at 37 °C, HPLC-MS/MS, half-life from first-order degradation plot; details: PBS
Description: as §1

Panx-1 [1] = biological target: T1, Panx-1 (Mus musculus, UniProt Q9JIP4); assay: two-electrode voltage clamp, Xenopus laevis oocytes, single dose […]; type: cell-based
T1 construct: gene Panx1
T1 sequence (Q9JIP4 whole entry): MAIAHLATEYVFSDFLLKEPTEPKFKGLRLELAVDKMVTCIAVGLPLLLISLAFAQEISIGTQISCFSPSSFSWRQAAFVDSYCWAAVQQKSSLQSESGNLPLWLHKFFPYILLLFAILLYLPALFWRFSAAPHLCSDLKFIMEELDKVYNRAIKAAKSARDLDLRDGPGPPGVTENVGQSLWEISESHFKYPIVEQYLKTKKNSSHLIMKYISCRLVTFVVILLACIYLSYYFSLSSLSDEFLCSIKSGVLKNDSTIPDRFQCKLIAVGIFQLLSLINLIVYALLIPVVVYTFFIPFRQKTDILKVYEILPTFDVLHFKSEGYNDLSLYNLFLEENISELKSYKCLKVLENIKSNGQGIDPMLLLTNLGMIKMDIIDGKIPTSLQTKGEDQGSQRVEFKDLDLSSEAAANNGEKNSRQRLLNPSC

Panx-1 [2] = biological target: T1, Panx-1; assay: two-electrode voltage clamp, Xenopus laevis oocytes expressing mouse pannexin1; type: cell-based
Panx-1 [3] = biological target: T1, Panx-1; assay: two-electrode voltage clamp in oocytes, […] CBX applied in each experiment; type: cell-based; details: read-out: % inhibition at 100 μM

| Structure (SMILES) | half-life at 1 µM (in vitro) [h] | half-life at 1 µM (physchem) [h] | IC50 (Panx-1 [2]) [µM] | further results |
| --- | --- | --- | --- | --- |
| CCOC(=O)c1cn(CCCCCc2ccccc2)c2ccc([N+](=O)[O-])cc2c1=O [4e, Ethyl 6-nitro-4-oxo-1-(5-phenylpentyl)-1,4-dihydroquinoline-3-carboxylate] | > 2 | > 2 |  |  |
| CCOC(=O)c1cn(Cc2ccc(S(N)(=O)=O)cc2)c2ccc([N+](=O)[O-])cc2c1=O [4f, Ethyl 6-nitro-4-oxo-1-(4-sulfamoylbenzyl)-1,4-dihydroquinoline-3-carboxylate] | > 2 | > 2 |  |  |
| O=C(O)c1cn(Cc2ccccc2)c2ccc([N+](=O)[O-])cc2c1=O [6a, 1-Benzyl-6-nitro-4-oxo-1,4-dihydroquinoline-3-carboxylic acid] |  |  |  | inhibition at 50 µM (Panx-1 [1]; read-out: TABLE 1): 53 ± 2.9% |
| CCCNS(=O)(=O)c1ccc(Nc2c(C(=O)O)cnc3ccccc23)cc1 [13d, 4-[4-(N-Propylsulfamoyl)phenyl]aminoquinoline-3-carboxylic acid] |  |  |  | inhibition at 50 µM (Panx-1 [1]; read-out: TABLE 2): 66 ± 4% |
| CCCN(CCC)S(=O)(=O)c1ccc(Nc2c(C(=O)O)cnc3ccccc23)cc1 [13e, 4-[4-(N,N-Dipropylsulfamoyl)phenyl]aminoquinoline-3-carboxylic acid] |  |  | 4.2 |  |
| O=C(O)c1ccc(Nc2c(C(=O)O)cnc3ccccc23)cc1 [13g, 4-[(4-Carboxyphenyl)amino]quinoline-3-carboxylic acid] |  |  | 15.5 |  |
| CC1(C)[C@@H](OC(=O)CCC(=O)O)CC[C@]2(C)[C@H]3C(=O)C=C4[C@@H]5C[C@@](C)(C(=O)O)CC[C@]5(C)CC[C@@]4(C)[C@]3(C)CC[C@@H]12 [CBX, carbenoxolone] |  |  |  | inhibition at 100 µM (Panx-1 [3]): 100% |
| Nc1ccc2c(c1)c(=O)c(C(=O)O)cn2Cc1ccccc1 [compound 8, 6-Amino-1-benzyl-4-oxo-1,4-dihydroquinoline-3-carboxylic acid] |  |  |  | inhibition at 50 µM (Panx-1 [1]; read-out: TABLE 1): 57 ± 5.9% |

Further lines, with some results ahead:

| half-life at 1 µM (in vitro) [h] | half-life at 1 µM (physchem) [h] | IC50 (Panx-1 [2]) [µM] | Structure (SMILES) | further results |
| --- | --- | --- | --- | --- |
| > 2 | > 2 |  | CCOC(=O)c1cn(CCc2ccccc2)c2ccc([N+](=O)[O-])cc2c1=O [4b, Ethyl 6-nitro-4-oxo-1-phenethyl-1,4-dihydroquinoline-3-carboxylate] |  |
| > 2 | > 2 |  | CCOC(=O)c1cn(CCCCc2ccccc2)c2ccc([N+](=O)[O-])cc2c1=O [4d, Ethyl 6-nitro-4-oxo-1-(4-phenylbutyl)-1,4-dihydroquinoline-3-carboxylate] |  |
|  |  | 3 | NS(=O)(=O)c1ccc(Cn2cc(C(=O)O)c(=O)c3cc([N+](=O)[O-])ccc32)cc1 [6f, 6-Nitro-4-oxo-1-(4-sulfamoylbenzyl)-1,4-dihydroquinoline-3-carboxylic acid] |  |
|  |  | 1.5 | O=C(O)c1ccc(Cn2cc(C(=O)O)c(=O)c3cc([N+](=O)[O-])ccc32)cc1 [6g, 1-(4-Carboxybenzyl)-6-nitro-4-oxo-1,4-dihydroquinoline-3-carboxylic acid] |  |
